Molecules are shown by their SMILES.

Assay type in all cases: cell-based
Series [1] deals with T1, human Nav1.5 (Homo sapiens (Human), UniProt Q14524). Description: Qpatch automated patch-clamp, peak Nav1.5 current inhibition, 1 Hz sinus rate, ventricular condition (holding potential -100 mV). As to conditions: CHO-K1 cells stably expressing human Nav1.5, without ATX-II. From the text: (§1) Electrophysiology was used to measure the ionic currents in isolated living cells using automated patch-clamp recording, performed using an automated patch-clamp machine called Qpatch (Sophion Bioscience). Two different assay conditions were used to identify compounds with atrial-selective potential. The 5-Hz AF-like assay has more depolarized holding potential at −85 mV to mimic atrial resting membrane potential (RMP) and was used to identify compounds of strong rate-dependence. Active, rate-dependent compounds were then screened at 1 Hz (i.e., sinus rate) at the holding potential of −100 mV to mimic the ventricular scenario and help identify compounds with the largest potency separation or attenuation from the 5-Hz AF-like assay. Such compounds have the potential for treating AF without the QRS liability inherent to Class Ic drugs.
(§2) The sodium current conducted through a cell (via Nav1.5) or electrical signals were processed through a low-pass filter at 5 KHz, re-digitalized and acquired at 20 kHz. Series resistance was not compensated and leak subtraction was performed.
(§3) 1 to 3 million Chinese Hamster Ovary cells (also known as CHO-K1) stably expressing human Nav1.5 were seeded into […] culture flasks with 25 mL medium (consisting of Gibco Dulbecco's Modified Eagle Medium as a base medium with 1% MEM non-essential amino acids, 400 μg/mL Geneticin, 5 μg/mL puromycin and 10% fetal bovine serum) 48-72 hours prior to the experiments. On the day of the experiment, cells were washed once with phosphate-buffered saline (also known as PBS; Gibco) detached with Detachin™ (Genlantis), and re-suspended in CHO—S-SFM II media (Gibco) at 200,000 cells/mL. The CHO—S-SFM II was replaced with assay solutions prior to the assays. Whole-cell currents were recorded at room temperature in the whole-cell configuration. The external aqueous assay solution (pH=7.4; Osm=307-315) contained the following (the concentration for each component is expressed in parentheses in mM): NaCl (140 mM), KCl (4 mM), CaCl2) (2 mM), MgCl2 (1 mM), 4-(2-hydroxyethyl)-1-piperazineethanesulfonic acid, also known as HEPES (10 mM), and glucose (5 mM). The internal aqueous assay solution (pH=7.2; Osm=292-295) contained the following (the concentration for each component is expressed in parentheses in mM): CsF (110 mM), CsCl (10 mM), NaCl (10 mM), HEPES (10 mM), and ethylene glycolbis(β-aminoethyl ether)-N,N,N′,N′-tetraacetic acid, also known as EGTA (10 mM).
(§4) To assess peak Nav1.5 current inhibition mimicking a ventricular condition at sinus rate with or without ATX-II (Nav1.5 IC50 (1 Hz, ATXII) (μM) or (1 Hz, Sinus Rate) (μM)), compounds were first prepared at 10 mM in DMSO, and cells were pre-incubated with test compounds at each concentration for 3 min. in an ascending order of 0, 0.37, 1.1, 3.3, 10 and 30 uM. In the assay with ATX-II (Alomone Labs), 50 nM ATX-II was included during the 3-min. compound incubation. A square pulse (−10 mV; 400 ms and a holding potential at −100 mV) was run at 1 Hz for 25 s until no further inhibition or Nav1.5 current change was observed. The percent inhibition (expressed as ([Iafter compound treatment/Ibefore compound treatment]×100%) is calculated by normalizing the peak current amplitude at the last pulse of each of the 6 compound concentrations by the amplitude before exposure to the test compound. The compiled data was further normalized by vehicle control (DMSO) to account for Nav1.5 current run-down, and IC50 was calculated by Matlab (MathWorks, USA).

For series [2], the target named is T1, human Nav1.5. Briefly: Qpatch automated patch-clamp, peak Nav1.5 current inhibition, 5-Hz AF-like assay (holding potential -85 mV). To be noted: CHO-K1 cells stably expressing human Nav1.5, holding potential -85 mV, Table 5, read-out: Nav1.5 IC50 (5 Hz, AF Rate).
Excerpt: as §1, §2, §3
To assess peak Nav1.5 current inhibition in an atrial fibrillation-mimicking condition (Nav1.5 IC50 (5 Hz, AF-like rate) (μM)), compounds were first prepared at 10 mM in DMSO, and cells were pre-incubated with test compounds at each concentration for 3 min. in an ascending order of 0, 0.37, 1.1, 3.3, 10 and 30 μM. An atrial action potential-like protocol consisting of a voltage ramp (+10 mV to −85 mV for a 150 ms duration and a holding potential at −85 mV) was then applied to cells at 5 Hz for 12 s until no further current change or inhibition was observed. The percent inhibition (expressed as ([Iafter compound treatment/Ibefore compound treatment]×100%) is calculated by normalizing the peak current amplitude at the last pulse of each of the 6 compound concentrations by the amplitude before exposure to the test compound. The compiled data was further normalized by vehicle control (DMSO) to account for Nav1.5 current run-down, and IC50 was calculated by Matlab (MathWorks, USA).

The target of series [3] is T1, human Nav1.5. Briefly: Qpatch automated patch-clamp, peak Nav1.5 current inhibition, 1 Hz with 50 nM ATX-II (holding potential -100 mV). To be noted: CHO-K1 cells stably expressing human Nav1.5, read-out: Nav1.5 IC50 (1 Hz, ATXII).
Excerpt: as §1, §2, §3, §4

T1 sequence (Q14524 whole entry): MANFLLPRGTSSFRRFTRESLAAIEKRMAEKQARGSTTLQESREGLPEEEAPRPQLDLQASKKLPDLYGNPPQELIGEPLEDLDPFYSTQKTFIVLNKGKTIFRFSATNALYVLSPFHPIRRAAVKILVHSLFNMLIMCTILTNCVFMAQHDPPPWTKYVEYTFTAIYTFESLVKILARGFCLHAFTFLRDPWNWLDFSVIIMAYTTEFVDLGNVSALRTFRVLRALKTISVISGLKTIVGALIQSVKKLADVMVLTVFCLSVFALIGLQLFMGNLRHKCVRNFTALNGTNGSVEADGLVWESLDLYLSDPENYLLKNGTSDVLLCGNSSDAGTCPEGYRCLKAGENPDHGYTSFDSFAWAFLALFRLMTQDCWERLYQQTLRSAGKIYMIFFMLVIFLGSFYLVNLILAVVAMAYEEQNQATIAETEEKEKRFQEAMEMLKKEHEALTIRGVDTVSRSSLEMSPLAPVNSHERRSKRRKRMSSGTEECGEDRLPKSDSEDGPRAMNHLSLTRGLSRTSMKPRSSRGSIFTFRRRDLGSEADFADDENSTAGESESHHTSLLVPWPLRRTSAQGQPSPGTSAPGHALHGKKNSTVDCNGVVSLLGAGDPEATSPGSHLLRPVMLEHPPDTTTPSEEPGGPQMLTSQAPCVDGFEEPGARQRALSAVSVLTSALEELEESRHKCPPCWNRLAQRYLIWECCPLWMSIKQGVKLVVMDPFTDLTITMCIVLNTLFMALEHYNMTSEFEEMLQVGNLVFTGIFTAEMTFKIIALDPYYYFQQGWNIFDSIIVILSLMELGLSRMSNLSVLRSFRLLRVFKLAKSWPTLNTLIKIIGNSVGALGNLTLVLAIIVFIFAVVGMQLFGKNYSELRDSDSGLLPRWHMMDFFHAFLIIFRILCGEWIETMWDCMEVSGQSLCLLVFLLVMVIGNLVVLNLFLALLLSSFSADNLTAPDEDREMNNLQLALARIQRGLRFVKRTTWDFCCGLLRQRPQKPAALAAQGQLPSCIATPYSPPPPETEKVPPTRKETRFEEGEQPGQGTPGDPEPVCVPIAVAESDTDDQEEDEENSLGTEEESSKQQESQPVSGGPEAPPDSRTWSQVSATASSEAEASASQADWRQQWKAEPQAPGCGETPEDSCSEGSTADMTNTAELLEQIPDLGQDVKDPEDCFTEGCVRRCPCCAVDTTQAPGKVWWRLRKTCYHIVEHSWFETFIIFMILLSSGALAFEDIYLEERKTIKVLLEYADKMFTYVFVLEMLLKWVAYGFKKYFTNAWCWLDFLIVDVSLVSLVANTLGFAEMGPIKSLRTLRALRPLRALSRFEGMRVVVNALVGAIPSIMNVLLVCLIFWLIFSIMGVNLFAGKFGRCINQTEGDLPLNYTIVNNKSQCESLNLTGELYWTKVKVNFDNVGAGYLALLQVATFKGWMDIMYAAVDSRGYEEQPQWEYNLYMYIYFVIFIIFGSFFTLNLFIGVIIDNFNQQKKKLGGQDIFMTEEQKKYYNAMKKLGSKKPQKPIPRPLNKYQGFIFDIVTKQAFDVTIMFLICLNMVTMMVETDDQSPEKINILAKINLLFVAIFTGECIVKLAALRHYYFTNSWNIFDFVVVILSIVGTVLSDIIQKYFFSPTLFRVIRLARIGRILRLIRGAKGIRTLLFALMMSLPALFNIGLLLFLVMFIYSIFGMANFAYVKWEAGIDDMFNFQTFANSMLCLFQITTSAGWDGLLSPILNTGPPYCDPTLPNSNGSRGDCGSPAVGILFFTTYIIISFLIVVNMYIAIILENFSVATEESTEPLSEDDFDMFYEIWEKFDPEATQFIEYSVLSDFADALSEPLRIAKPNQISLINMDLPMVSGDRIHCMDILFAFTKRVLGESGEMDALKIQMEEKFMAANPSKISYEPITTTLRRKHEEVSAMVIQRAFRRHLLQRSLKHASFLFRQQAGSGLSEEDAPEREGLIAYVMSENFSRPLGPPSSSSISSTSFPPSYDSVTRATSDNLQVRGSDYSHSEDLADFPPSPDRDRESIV

As a reminder, the IC50 is the concentration needed to halve the response being measured. Regarding `CC(O)(CS(N)(=O)=O)c1cccc(-c2nnn(Cc3c(F)ccc4c3OC(F)(F)O4)n2)n1` (single isomer, unassigned) [Example 3, (R or S)-2-hydroxy-2-(6-(2-((2,2,5-trifluorobenzo[d][1,3]dioxol-4-yl)methyl)-2H-tetrazol-5-yl)pyridin-2-yl)propane-1-sulfonamide], the figures for the IC50 at human Nav1.5 [1] and on human Nav1.5 [2] were more than 30 µM and 7.5 µM, respectively.

On to `CC(O)(CS(N)(=O)=O)c1cccc(-c2nnn(Cc3c(F)ccc4c3OC(F)(F)O4)n2)n1` (single isomer, unassigned) [Example 4, (R or S)-2-hydroxy-2-(6-(2-((2,2,5-trifluorobenzo[d][1,3]dioxol-4-yl)methyl)-2H-tetrazol-5-yl)pyridin-2-yl)propane-1-sulfonamide], for which the half-maximal inhibitory concentration (IC50) against human Nav1.5 [1] is more than 30 µM; at human Nav1.5 [2] it was 6.7 µM.

Consider `CC(O)(CS(N)(=O)=O)c1cc(-c2nnn(Cc3cc(OC(F)(F)F)ccc3F)n2)ccc1F` (single isomer, unassigned) [Example 5, (R or S)-2-(2-fluoro-5-(2-(2-fluoro-5-(trifluoromethoxy)benzyl)-2H-tetrazol-5-yl)phenyl)-2-hydroxypropane-1-sulfonamide], for which the half-maximal inhibitory concentration (IC50) against human Nav1.5 [1] was more than 30 µM; at human Nav1.5 [2] it was 7.9 µM.

Regarding `CC(O)(CS(N)(=O)=O)c1cc(-c2nnn(Cc3cc(OC(F)(F)F)ccc3F)n2)ccc1F` (single isomer, unassigned) [Example 6, (R or S)-2-(2-fluoro-5-(2-(2-fluoro-5-(trifluoromethoxy)benzyl)-2H-tetrazol-5-yl)phenyl)-2-hydroxypropane-1-sulfonamide], the values for the IC50 against human Nav1.5 [1] and on human Nav1.5 [2] were more than 30 µM and 7.9 µM, respectively.

Take `CC(c1cccc(-c2nnn(Cc3cc(OC(F)(F)F)ccc3F)n2)n1)C(CO)S(N)(=O)=O` (single isomer, unassigned) [Example 31, (2R or 2S, 3R or 3S)-3-(6-(2-(2-fluoro-5-(trifluoromethoxy)benzyl)-2H-tetrazol-5-yl)pyridin-2-yl)-1-hydroxybutane-2-sulfonamide]: the IC50 stood at 7.8 µM at human Nav1.5 [1] and 1.1 µM on human Nav1.5 [2].

Take `CC(O)(CS(N)(=O)=O)c1cccc(-c2ccn(Cc3cc(OC(F)(F)F)ccc3F)n2)n1` (single isomer, unassigned) [Example 38, (R or S)-2-(6-(1-(2-fluoro-5-(trifluoromethoxy)benzyl)-1H-pyrazol-3-yl)pyridin-2-yl)-2-hydroxypropane-1-sulfonamide]: the IC50 on human Nav1.5 [2] was 4.3 µM; on human Nav1.5 [3] it was more than 30 µM.

With `CC(O)(CS(N)(=O)=O)c1cccc(-c2nc(Cc3cc(OC(F)(F)F)ccc3F)no2)n1` (single isomer, unassigned) [Example 57, (R or S)-2-(6-(3-(2-fluoro-5-(trifluoromethoxy)benzyl)-1,2,4-oxadiazol-5-yl)pyridin-2-yl)-2-hydroxypropane-1-sulfonamide], the IC50 was 3.6 µM on human Nav1.5 [2] and 27 µM on human Nav1.5 [3].

As for `CC(O)(CS(N)(=O)=O)c1cccc(-c2nc(Cc3cc(OC(F)(F)F)ccc3F)no2)n1` (single isomer, unassigned) [Example 58, (R or S)-2-(6-(3-(2-fluoro-5-(trifluoromethoxy)benzyl)-1,2,4-oxadiazol-5-yl)pyridin-2-yl)-2-hydroxypropane-1-sulfonamide], the IC50 at human Nav1.5 [2] was 5 µM; on human Nav1.5 [3], more than 30 µM.

Regarding `CC(O)(CS(N)(=O)=O)c1cccc(-c2cn(Cc3cc(OC(F)(F)F)ccc3F)nn2)n1` (single isomer, unassigned) [Example 59, (R or S)-2-(6-(1-(2-fluoro-5-(trifluoromethoxy)benzyl)-1H-1,2,3-triazol-4-yl)pyridin-2-yl)-2-hydroxypropane-1-sulfonamide], the values for the IC50 at human Nav1.5 [2] and at human Nav1.5 [3] were 3.4 µM and 8.6 µM, respectively.

As for `CC(O)(CS(N)(=O)=O)c1cccc(-c2cn(Cc3cc(OC(F)(F)F)ccc3F)nn2)n1` (single isomer, unassigned) [Example 60, (R or S)-2-(6-(1-(2-fluoro-5-(trifluoromethoxy)benzyl)-1H-1,2,3-triazol-4-yl)pyridin-2-yl)-2-hydroxypropane-1-sulfonamide], the IC50 was 7 µM on human Nav1.5 [2] and 16 µM at human Nav1.5 [3].

For the compound `CC(O)(CS(N)(=O)=O)c1cccc(-c2cnn(Cc3cc(OC(F)(F)F)ccc3F)n2)n1` (single isomer, unassigned) [Example 61, (R or S)-2-(6-(2-(2-fluoro-5-(trifluoromethoxy)benzyl)-2H-1,2,3-triazol-4-yl)pyridin-2-yl)-2-hydroxypropane-1-sulfonamide], the IC50 on human Nav1.5 [2] is 5 µM; on human Nav1.5 [3], more than 30 µM.

Regarding `CC(O)(CS(N)(=O)=O)c1cccc(-c2nnn(Cc3cc(OC(F)(F)F)ccc3F)n2)c1` (single isomer, unassigned) [Rac-25 + 26, (R or S)-2-(3-(2-(2-fluoro-5-(trifluoromethoxy)benzyl)-2H-tetrazol-5-yl)phenyl)-2-hydroxypropane-1-sulfonamide], the IC50 at human Nav1.5 [2] was 2.2 µM; at human Nav1.5 [3], more than 30 µM.

For the compound `CC(O)(CS(N)(=O)=O)c1cccc(-c2nnn(Cc3cc(OCC(F)(F)F)ccc3F)n2)n1` (single isomer, unassigned) [Rac-29+30, (R or S)-2-(6-(2-(2-fluoro-5-(2,2,2-trifluoroethoxy)benzyl)-2H-tetrazol-5-yl)pyridin-2-yl)-2-hydroxypropane-1-sulfonamide], the IC50 on human Nav1.5 [2] came out at 2.5 µM; on human Nav1.5 [3], 3 µM.

As for `CC(O)(CS(N)(=O)=O)c1cccc(-c2ccn(Cc3cc(OC(F)(F)F)ccc3F)n2)n1` (single isomer, unassigned) [Rac-37 + 38, (R or S)-2-(6-(1-(2-fluoro-5-(trifluoromethoxy)benzyl)-1H-pyrazol-3-yl)pyridin-2-yl)-2-hydroxypropane-1-sulfonamide], the IC50 was 2.3 µM on human Nav1.5 [2] and more than 30 µM at human Nav1.5 [3].

In the case of `CC(O)(CS(N)(=O)=O)c1cccc(-c2cn(Cc3cc(OC(F)(F)F)ccc3F)nn2)n1` (single isomer, unassigned) [Rac-59 + 60, (R or S)-2-(6-(1-(2-fluoro-5-(trifluoromethoxy)benzyl)-1H-1,2,3-triazol-4-yl)pyridin-2-yl)-2-hydroxypropane-1-sulfonamide], the figures for the IC50 on human Nav1.5 [2] and at human Nav1.5 [3] were 5.2 µM and 15 µM, respectively.

`C[C@@](O)(CS(N)(=O)=O)c1cccc(-c2nnn(Cc3cc(OC(F)(F)F)ccc3F)n2)n1` [Example 2, (S)-2-(6-(2-(2-fluoro-5-(trifluoromethoxy)benzyl)-2H-tetrazol-5-yl)pyridin-2-yl)-2-hydroxypropane-1-sulfonamide]: the IC50 is 4.7 µM at human Nav1.5 [2] and more than 30 µM on human Nav1.5 [3].

These data come from patent publication US20250034108A1, “SODIUM CHANNEL BLOCKERS” (NOVARTIS AG, priority 2023, published 2025).
